O=S(=O)([O-])c1cccc2c(S(=O)(=O)[O-])cccc12.[Na+].[Na+]
solubility (mole fraction)
Conditions | in acetone | in ethanol | in isopropanol | in methanol | in water
283.15 K | 5.45e-05 | 0.000107 | 2.55e-05 | 0.00017 | 0.00572
293.15 K | 5.92e-05 | 0.00011 | 5.68e-05 | 0.000221 | 0.00664
303.15 K | 7.41e-05 | 0.00011 | 6.45e-05 | 0.000251 | 0.00784
313.15 K | 9.49e-05 | 0.000147 | 8.74e-05 | 0.00027 | 0.00919
323.15 K | 9.73e-05 | 0.000184 | 9.19e-05 | 0.00028 | 0.0106
